# Data as given in ChEMBL document CHEMBL3860098, “Sulfamide as Zinc Binding Motif in Small Molecule Inhibitors of Activated Thrombin Activatable Fibrinolysis Inhibitor (TAFIa)” (J Med Chem, 2016).
# How the values were obtained:
# Carboxypeptidase B2 = target: T1, Carboxypeptidase B2 (Homo sapiens, UniProt Q96IY4)
# T1 sequence (Q96IY4 whole entry): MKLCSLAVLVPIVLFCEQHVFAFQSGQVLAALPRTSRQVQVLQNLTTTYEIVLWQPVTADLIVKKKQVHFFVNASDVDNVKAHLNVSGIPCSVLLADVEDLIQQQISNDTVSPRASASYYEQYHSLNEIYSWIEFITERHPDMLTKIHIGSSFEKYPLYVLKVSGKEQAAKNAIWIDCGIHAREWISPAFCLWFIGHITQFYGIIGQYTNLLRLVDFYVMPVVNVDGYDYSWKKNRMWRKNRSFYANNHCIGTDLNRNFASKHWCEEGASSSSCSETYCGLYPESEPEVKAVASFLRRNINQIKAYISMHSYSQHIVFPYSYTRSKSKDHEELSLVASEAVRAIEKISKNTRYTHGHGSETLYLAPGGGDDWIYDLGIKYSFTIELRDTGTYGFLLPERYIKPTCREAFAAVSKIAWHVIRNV
# Description: Inhibition of activated human plasma TAFI incubated for 15 mins by chromogenic assay
# [1] = Aqueous solubility of the compound at pH 7.4 at 25 degC; type: physicochemical
# [2] = Lipophilicity, log D of the compound at pH 7.4 at 25 degC; type: physicochemical; details: buffer
# [3] = Drug metabolism in human liver microsomes assessed as CYP450/FMO-mediated oxidative metabolism at 5 uM after 20 mins in presence of NADPH; type: ADME; details: read-out: Drug metabolism
# [4] = Drug metabolism in Sprague-Dawley rat liver microsomes assessed as CYP450/FMO-mediated oxidative metabolism at 5 uM after 20 mins in presence of NADPH; type: ADME; details: read-out: Drug metabolism
# [5] = Drug metabolism in Swiss CD1 mouse liver microsomes assessed as CYP450/FMO-mediated oxidative metabolism at 5 uM after 20 mins in presence of NADPH; type: ADME; details: read-out: Drug metabolism
# [6] = Intrinsic clearance in human hepatocytes assessed per 10^6 cells; type: ADME, cell-based, Hepatocyte
# [7] = Permeability across apical to basolateral side in human Caco2/TC7 cells at 20 uM after 120 mins by UPLC/ESI-MS-MS analysis; type: ADME, cell-based; details: Caco-2
# Cytochrome P450 1A1 = target: T2, Cytochrome P450 1A1 (Homo sapiens, UniProt P04798); assay: Induction of CYP1A1 (unknown origin); type: ADME
# T2 sequence (P04798 whole entry): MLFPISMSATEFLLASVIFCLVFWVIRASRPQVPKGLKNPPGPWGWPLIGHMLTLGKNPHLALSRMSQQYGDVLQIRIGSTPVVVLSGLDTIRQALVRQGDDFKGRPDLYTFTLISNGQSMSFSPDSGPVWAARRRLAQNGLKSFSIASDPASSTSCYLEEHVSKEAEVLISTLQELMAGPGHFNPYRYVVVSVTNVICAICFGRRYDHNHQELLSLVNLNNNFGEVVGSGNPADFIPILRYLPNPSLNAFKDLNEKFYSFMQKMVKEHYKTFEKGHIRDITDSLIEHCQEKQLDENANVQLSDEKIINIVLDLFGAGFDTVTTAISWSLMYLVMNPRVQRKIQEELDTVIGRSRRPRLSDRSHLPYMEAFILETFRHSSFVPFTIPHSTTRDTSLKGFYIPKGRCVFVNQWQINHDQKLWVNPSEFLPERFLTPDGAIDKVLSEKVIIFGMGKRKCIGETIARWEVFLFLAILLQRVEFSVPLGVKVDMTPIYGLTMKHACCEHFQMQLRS
# Cytochrome P450 1A2 = target: T3, Cytochrome P450 1A2 (Homo sapiens, UniProt P05177); assay: Induction of CYP1A2 (unknown origin); type: ADME
# T3 sequence (P05177 whole entry): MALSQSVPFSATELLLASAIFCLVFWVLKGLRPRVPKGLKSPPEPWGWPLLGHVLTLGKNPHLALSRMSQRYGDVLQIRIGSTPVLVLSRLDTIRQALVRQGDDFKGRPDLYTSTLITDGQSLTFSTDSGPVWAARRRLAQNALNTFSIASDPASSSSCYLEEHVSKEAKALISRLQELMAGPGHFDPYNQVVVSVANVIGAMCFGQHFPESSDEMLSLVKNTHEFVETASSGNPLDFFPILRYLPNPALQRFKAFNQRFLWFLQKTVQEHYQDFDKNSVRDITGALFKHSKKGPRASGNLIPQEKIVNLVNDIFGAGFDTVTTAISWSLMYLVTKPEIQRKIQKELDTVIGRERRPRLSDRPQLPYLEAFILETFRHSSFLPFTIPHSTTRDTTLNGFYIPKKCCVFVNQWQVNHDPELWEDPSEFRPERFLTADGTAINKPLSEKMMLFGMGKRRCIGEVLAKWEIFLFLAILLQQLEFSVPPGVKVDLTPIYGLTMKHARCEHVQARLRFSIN
# Cytochrome P450 3A4 = Cytochrome P450 3A4 (Homo sapiens, UniProt P08684); assay: Induction of CYP3A4 (unknown origin); type: ADME
# [8] = target: Voltage-gated inwardly rectifying potassium channel KCNH2 (Homo sapiens, UniProt Q12809); assay: Inhibition of recombinant human ERG expressed in CHO cells by patch clamp method; type: cell-based
# [9] = Terminal half life in Sprague-Dawley rat at 1 mg/kg, iv administered as bolus dose measured up to 24 hrs; type: ADME, organism-based; details: in vivo, read-out: beta t1/2 (converted)
# [10] = Initial plasma concentration in Sprague-Dawley rat at 1 mg/kg, iv administered as bolus dose measured up to 4 hrs; type: ADME, organism-based
# [11] = Clearance in Sprague-Dawley rat at 1 mg/kg, iv administered as bolus dose measured up to 24 hrs; type: ADME, organism-based; details: in vivo
# [12] = Volume distribution at steady state in Sprague-Dawley rat at 1 mg/kg, iv administered as bolus dose measured up to 24 hrs; type: ADME, organism-based; details: in vivo, read-out: Vdss
# [13] = Drug excretion in Sprague-Dawley rat urine at 1 mg/kg, iv administered as bolus dose after 24 hrs; type: ADME, organism-based; details: read-out: Drug excretion
# Chain of Cytochrome P450 3A4 (P08684 whole entry): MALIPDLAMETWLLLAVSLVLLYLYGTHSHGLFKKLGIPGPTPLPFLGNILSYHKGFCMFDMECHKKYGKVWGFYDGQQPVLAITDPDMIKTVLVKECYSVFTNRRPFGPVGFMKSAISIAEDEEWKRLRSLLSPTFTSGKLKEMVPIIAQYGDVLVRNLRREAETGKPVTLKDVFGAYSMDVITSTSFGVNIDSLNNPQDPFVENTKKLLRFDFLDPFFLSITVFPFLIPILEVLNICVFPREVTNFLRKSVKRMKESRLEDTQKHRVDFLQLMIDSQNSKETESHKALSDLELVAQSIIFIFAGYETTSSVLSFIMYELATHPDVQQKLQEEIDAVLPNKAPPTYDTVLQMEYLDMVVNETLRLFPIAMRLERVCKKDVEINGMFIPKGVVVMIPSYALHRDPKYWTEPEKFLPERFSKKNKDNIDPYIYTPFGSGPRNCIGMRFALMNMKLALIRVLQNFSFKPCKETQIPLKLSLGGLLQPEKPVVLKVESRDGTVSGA
# Chain of Voltage-gated inwardly rectifying potassium channel KCNH2 (Q12809 whole entry): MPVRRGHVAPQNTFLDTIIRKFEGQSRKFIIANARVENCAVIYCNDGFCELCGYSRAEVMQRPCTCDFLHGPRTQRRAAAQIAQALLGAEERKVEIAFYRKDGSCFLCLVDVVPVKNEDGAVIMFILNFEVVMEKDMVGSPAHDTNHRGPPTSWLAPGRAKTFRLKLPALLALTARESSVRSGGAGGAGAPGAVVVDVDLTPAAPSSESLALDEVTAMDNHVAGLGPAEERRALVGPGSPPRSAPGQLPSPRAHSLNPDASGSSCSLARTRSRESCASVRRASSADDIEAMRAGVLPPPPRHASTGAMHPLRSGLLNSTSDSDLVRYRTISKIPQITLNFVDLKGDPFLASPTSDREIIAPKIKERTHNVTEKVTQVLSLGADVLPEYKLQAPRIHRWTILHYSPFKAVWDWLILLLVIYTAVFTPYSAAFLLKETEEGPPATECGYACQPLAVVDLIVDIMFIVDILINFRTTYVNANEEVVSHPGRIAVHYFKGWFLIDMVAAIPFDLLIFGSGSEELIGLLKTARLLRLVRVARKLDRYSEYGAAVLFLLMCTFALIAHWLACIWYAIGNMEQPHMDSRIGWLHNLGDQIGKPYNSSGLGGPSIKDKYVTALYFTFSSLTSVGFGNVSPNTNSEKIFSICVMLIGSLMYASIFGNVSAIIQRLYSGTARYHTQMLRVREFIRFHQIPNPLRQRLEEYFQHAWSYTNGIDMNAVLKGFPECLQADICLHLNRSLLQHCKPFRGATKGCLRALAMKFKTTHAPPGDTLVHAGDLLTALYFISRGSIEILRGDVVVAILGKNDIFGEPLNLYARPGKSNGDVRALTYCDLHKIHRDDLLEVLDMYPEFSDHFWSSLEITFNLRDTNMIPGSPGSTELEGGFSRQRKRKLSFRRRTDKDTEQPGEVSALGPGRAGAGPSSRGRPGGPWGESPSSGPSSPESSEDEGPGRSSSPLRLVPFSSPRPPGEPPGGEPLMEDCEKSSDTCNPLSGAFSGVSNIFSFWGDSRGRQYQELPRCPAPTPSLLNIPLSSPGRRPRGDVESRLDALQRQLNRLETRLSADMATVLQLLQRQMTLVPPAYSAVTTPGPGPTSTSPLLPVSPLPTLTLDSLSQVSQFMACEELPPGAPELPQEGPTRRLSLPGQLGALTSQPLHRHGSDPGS
smiles,measurement,setting,value
CC1(C)[C@@H]2CC[C@@]1(C)[C@@H](NC(=O)[C@H](CC1CCCCC1)NS(=O)(=O)N[C@@H](CC1CCC(N)CC1)C(=O)O)C2 (stereo partly drawn),IC50,Carboxypeptidase B2,> 30 µM
CC1(C)[C@@H]2CC[C@@]1(C)[C@@H](NC(=O)[C@H](CC1CCCCC1)NS(=O)(=O)N[C@@H](CCCCN)C(=O)O)C2.Cl,solubility,[1],457 µg/mL
same,logD,[2],2.02
same,"metabolised at 20 min, 5 µM",[3],21%
same,"metabolised at 20 min, 5 µM",[4],8%
same,"metabolised at 20 min, 5 µM",[5],0%
same,CLH,[6],0.043 mL/h
same,"Papp A→B at 2 h, 20 µM",[7],0.06 ×10⁻⁶ cm/s
same,Activity,Cytochrome P450 1A1,< 10%
same,Activity,Cytochrome P450 1A2,< 10%
same,Activity,Cytochrome P450 3A4,< 10%
same,IC50,[8],> 10 µM
NCCCC[C@H](NS(=O)(=O)N[C@H](C(=O)NC12CC3CC(CC(C3)C1)C2)c1ccccc1)C(=O)O,IC50,Carboxypeptidase B2,> 30 µM
CC1(C)[C@@H]2CC[C@@]1(C)[C@@H](NC(=O)[C@H](CC1CCCCC1)NS(=O)(=O)N[C@@H](CCCCN)C(=O)O)C2,half-life,[9],1.7 h
same,C0 at 4 h,[10],3800 ng/mL
same,clearance,[11],11.7 mL/min/kg
same,Vd,[12],0.38 L/kg
same,dose excreted at 24 h,[13],4%
CC1(C)C2CCC1(C)C(OC(=O)[C@H](CC1CCCCC1)NS(=O)(=O)N[C@@H](CCCCN)C(=O)O)C2 (stereo partly drawn),IC50,Carboxypeptidase B2,6.4 µM
CC1(C)[C@@H]2CC[C@@]1(C)[C@@H](NC(=O)[C@@H](NS(=O)(=O)N[C@@H](CCCCN)C(=O)O)C1CCCCC1)C2,IC50,Carboxypeptidase B2,47 µM
CC1(C)[C@@H]2CC[C@@]1(C)[C@@H](NC(=O)[C@H](CC1CCCCC1)NS(=O)(=O)N[C@@H](CCCC(N)=O)C(=O)O)C2,IC50,Carboxypeptidase B2,> 30 µM
CC(=O)NCCCC[C@H](NS(=O)(=O)N[C@@H](CC1CCCCC1)C(=O)N[C@H]1C[C@H]2CC[C@]1(C)C2(C)C)C(=O)O,IC50,Carboxypeptidase B2,> 30 µM
CC(C)[C@H](NS(=O)(=O)N[C@@H](CCCCN)C(=O)O)C(=O)NC12CC3CC(CC(C3)C1)C2,IC50,Carboxypeptidase B2,> 30 µM
